From paper PMC10586439 (ACS Omega, 2023)
Where two headings read alike, the source gives them in different places.

Experiments:
[1] = system: MDA-MB-231 human breast carcinoma cell line; assay: MTT cytotoxicity assay against MDA-MB-231 breast carcinoma cell line; assay type: cell-based
[2] = target: β-tubulin (Homo sapiens, UniProt P07437+P68363); assay: β-Tubulin polymerization inhibition; assay type: biochemical; conditions: read-out: β-tubulin polymerization inhibition percentage
[3] = system: normal MCF-10A breast cells; assay: MTT cytotoxicity assay on normal MCF-10A breast cells; assay type: cell-based; conditions: for IC50: Homo sapiens, MCF-10A, read-out: IC50 value (μM) MCF-10A
[4] = system: MDA-MB-231 cells; assay: Cell cycle analysis by flow cytometry; assay type: cell-based, human
[5] = system: MDA-MB-231 cells; assay: Annexin V-FITC/PI apoptosis assay by flow cytometry; assay type: cell-based, human; conditions: MDA-MB-231, 48 h, compound at its IC50
[6] = MDA-MB-231, 24 h, read-out: IC50 value (μM) MDA-MB-231
[7] = MDA-MB-231, read-out: IC50 against MDA-MB-231 cells

Sequence of β-tubulin (P07437 whole entry): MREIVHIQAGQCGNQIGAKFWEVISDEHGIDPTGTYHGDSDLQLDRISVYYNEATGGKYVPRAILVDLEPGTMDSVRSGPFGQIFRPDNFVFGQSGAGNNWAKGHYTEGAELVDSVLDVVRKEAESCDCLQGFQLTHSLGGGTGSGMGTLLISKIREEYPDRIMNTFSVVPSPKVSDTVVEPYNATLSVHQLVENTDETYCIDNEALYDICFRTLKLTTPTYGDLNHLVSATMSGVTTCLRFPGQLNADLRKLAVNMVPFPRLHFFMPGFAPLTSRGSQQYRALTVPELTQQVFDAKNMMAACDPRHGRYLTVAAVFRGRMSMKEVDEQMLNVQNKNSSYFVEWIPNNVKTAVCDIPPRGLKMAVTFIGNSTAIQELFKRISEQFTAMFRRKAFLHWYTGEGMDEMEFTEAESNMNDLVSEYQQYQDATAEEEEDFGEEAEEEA
Sequence of β-tubulin (P68363 whole entry): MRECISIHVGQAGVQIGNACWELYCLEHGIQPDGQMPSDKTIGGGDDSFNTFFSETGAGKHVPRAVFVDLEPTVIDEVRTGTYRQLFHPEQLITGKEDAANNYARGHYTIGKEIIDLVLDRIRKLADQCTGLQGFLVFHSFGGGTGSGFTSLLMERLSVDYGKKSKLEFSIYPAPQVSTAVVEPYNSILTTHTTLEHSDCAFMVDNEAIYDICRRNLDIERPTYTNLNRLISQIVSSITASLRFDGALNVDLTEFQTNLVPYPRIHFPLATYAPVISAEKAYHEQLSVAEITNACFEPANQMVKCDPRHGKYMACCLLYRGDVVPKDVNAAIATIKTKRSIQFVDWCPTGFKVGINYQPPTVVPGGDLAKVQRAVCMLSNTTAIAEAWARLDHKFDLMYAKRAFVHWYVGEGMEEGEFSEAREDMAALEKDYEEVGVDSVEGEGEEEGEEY

`COc1ccc(C(=O)N/C(=C\c2ccc(Cl)cc2)C(=O)O)cc1OC` [4a, (Z)-3-(4-Chlorophenyl)-2-(3,4-dimethoxybenzamido)acrylic Acid] showed an IC50 [1, 6] of 8.24 ± 0.37 µM and an IC50 [1, 7] of 8.55 to 15.9 µM.
For `COC(=O)/C(=C/c1ccc(Cl)cc1)NC(=O)c1cc(OC)c(OC)c(OC)c1` [5e, (Z)-Methyl 3-(4-Chlorophenyl)-2-(3,4,5-trimethoxybenzamido)acrylate], the IC50 [1, 6] was 4.03 ± 0.16 µM, the IC50 [1, 7] was 4.06 µM and the inhibition at 25 µM [2] was 77.8%.
`CCCCOC(=O)/C(=C/c1ccc(Cl)cc1)NC(=O)c1cc(OC)c(OC)c(OC)c1` [5i, (Z)-Butyl 3-(4-Chlorophenyl)-2-(3,4,5-trimethoxybenzamido)acrylate] was tested, and the IC50 [1, 6] was 28.1 ± 0.56 µM.
With `CCCOC(=O)/C(=C/c1ccc(Cl)cc1)NC(=O)c1cc(OC)c(OC)c(OC)c1` [5g, (Z)-Propyl 3-(4-Chlorophenyl)-2-(3,4,5-trimethoxybenzamido)acrylate] the IC50 [1, 6] was 23.2 ± 0.4 µM.
Work on `COc1ccc(/C=C\c2cc(OC)c(OC)c(OC)c2)cc1O` [CA-4, combretastatin A-4, reference compound] yielded an IC50 [1, 6] of 1.27 µM, an IC50 [3] of 14.2 ± 0.29 µM and an inhibition at 25 µM [2] of 89.8%.
For `CCCOC(=O)/C(=C/c1ccc(Cl)cc1)NC(=O)c1ccc(OC)c(OC)c1` [5c, (Z)-Propyl 3-(4-Chlorophenyl)-2-(3,4-dimethoxybenzamido)acrylate], the IC50 [1, 6] was 14.3 ± 0.33 µM.
Compound `COC(=O)/C(=C/c1ccc(Cl)cc1)NC(=O)c1ccc(OC)c(OC)c1` [5a, (Z)-Methyl 3-(4-Chlorophenyl)-2-(3,4-dimethoxybenzamido)acrylate] has an IC50 [1, 6] of 4.84 ± 0.19 µM and an inhibition at 25 µM [2] of 57.1%.
Work on `COc1cc(C(=O)N/C(=C\c2ccc(Cl)cc2)C(=O)OC(C)C)cc(OC)c1OC` [5h, (Z)-Isopropyl 3-(4-Chlorophenyl)-2-(3,4,5-trimethoxybenzamido)acrylate] yielded an IC50 [1, 6] of 25.2 ± 0.51 µM.
Compound `CCOC(=O)/C(=C/c1ccc(Cl)cc1)NC(=O)c1ccc(OC)c(OC)c1` [5b, (Z)-Ethyl 3-(4-Chlorophenyl)-2-(3,4-dimethoxybenzamido)acrylate] has an IC50 [1, 6] of 15.8 ± 0.41 µM.
In the case of `COc1cc(C(=O)N/C(=C\c2ccc(Cl)cc2)C(=O)O)cc(OC)c1OC` [4b, (Z)-3-(4-Chlorophenyl)-2-(3,4,5-trimethoxybenzamido)acrylic Acid], the IC50 [1, 6] is reported as 3.24 ± 0.13 µM, the IC50 [3] is reported as 23.3 ± 0.32 µM and the “mean tumor selectivity index” value ([3]; MCF-10A versus MDA-MB-231) is reported as 7.2. For the same compound, the inhibition at 25 µM [2] was 80.1%, the “percentage of cells in G2/M phase” value ([4]; MDA-MB-231, 48 h, compound at its IC50, untreated control 7.35%) was 28.08% and the “cell accumulation at G2/M stage, times higher than untreated control” value ([4]; MDA-MB-231, compound at its IC50) was 3.82 times. It also gave a late-secondary cellular apoptosis ([5]; untreated control 0.24%) of 12.62% and an early primary apoptosis ([5]; untreated control 0.69%) of 8.09%.
In the case of `CCCCOC(=O)/C(=C/c1ccc(Cl)cc1)NC(=O)c1ccc(OC)c(OC)c1` [5d, (Z)-Butyl 3-(4-Chlorophenyl)-2-(3,4-dimethoxybenzamido)acrylate], the IC50 [1, 6] is reported as 45.9 ± 1.02 µM and the IC50 [1, 7] is reported as 45.8 µM.
In the case of `CCOC(=O)/C(=C/c1ccc(Cl)cc1)NC(=O)c1cc(OC)c(OC)c(OC)c1` [5f, (Z)-Ethyl 3-(4-Chlorophenyl)-2-(3,4,5-trimethoxybenzamido)acrylate], the IC50 [1, 6] is reported as 11.6 ± 0.24 µM.
